In patent US4115385A, “Antibacterial 3-(5-tetrazolyl) penam compounds” (Pfizer Inc., priority 1977, dated 1978):
≈ marks a conversion by molar mass, not a printed value. Where two headings read alike, the source gives them in different places.

System: Streptococcus pyogenes
Experiment: In vitro minimum inhibitory concentration (MIC) vs. Strep. pyogenes
Assay type: cell-based
Settings: for MIC: Streptococcus pyogenes
Procedure: The antibacterial penam compounds of the instant invention show activity against a wide variety of gram-positive and gram-negative bacteria. […] The broth is inoculated with the bacterial culture, and with the test antibiotic, and then it is incubated overnight. On the next day, the test is read visually. The minimum inhibitory concentration (MIC) is the lowest concentration of antibiotic which prevents turbidity, i.e., which prevents growth of the microorganism. In vitro activities of several of the penam compounds of the invention are presented later in this specification.
In Table II, the minimum inhibitory concentrations (MIC's) of compounds of formula I, wherein R^2 is hydrogen, against a strain of Streptococcus pyogenes, are reported; and in Table III, minimum inhibitory concentrations of compounds of formula I, wherein R^2 is hydrogen, against a strain of Staphylococcus aureus, are presented. Because of the tautomeric nature of such tetrazole derivatives, referred to hereinbefore,each of the preparations tested also contains some of the corresponding compound of formula II, wherein R^3 is hydrogen.

[1] = Table II, two-fold serial dilution, Brain-Heart Infusion broth, overnight, read-out: MIC vs. Strep. pyogenes
[2] = read-out: MIC vs. Strep. pyogenes
[3] = Table IV, read-out: MIC vs. Strep. pyogenes

| Molecule | MIC [1] [µg/mL] | MIC [2] [µg/mL] | other results |
| --- | --- | --- | --- |
| CC1(C)S[C@@H]2[C@H](NC(=O)NC(=O)c3ccco3)C(=O)N2[C@H]1c1nn[nH]n1 [N-(2-furoyl)carbamoyl] | 1.56 (≈ 4.13 µM) |  |  |
| CCOC(=O)N[C@@H](C(=O)N[C@@H]1C(=O)N2[C@@H]1SC(C)(C)[C@@H]2c1nnn[nH]1)c1ccccc1 [D-2-(ethoxycarbonylamino)-2-phenylacetyl] | 6.25 (≈ 14 µM) |  |  |
| CC1(C)S[C@@H]2[C@H](NC(=O)[C@H](NC(=O)CNC(=N)c3cc(I)cc(C#N)c3)c3ccccc3)C(=O)N2[C@H]1c1nnn[nH]1 |  | < 0.1 |  |
| CC1(C)S[C@@H]2[C@H](N=CN3CCCCCC3)C(=O)N2[C@H]1c1nnn[nH]1 [6-([Hexahydro-1-azepinyl]methyleneamino)-2,2-dimethyl-3-(5-tetrazolyl)penam] |  |  | MIC [3]: 50 µg/mL (≈ 143 µM) |
| CC1(C)S[C@@H]2[C@H](NC(=O)CSc3ccccc3)C(=O)N2[C@H]1c1nnn[nH]1 [2-(phenylthio)acetyl, 6-(2-[phenylthio]acetamido)-2,2-dimethyl-3-(5-tetrazolyl)penam] | 0.78 (≈ 2 µM) |  |  |
| CC1(C)S[C@@H]2[C@H](NC(=O)C(C(=O)Oc3ccc4c(c3)CCC4)c3ccccc3)C(=O)N2[C@H]1c1nnn[nH]1 (some centres unmarked) [2-(5-indanyloxycarbonyl)-2-phenylacetyl, 6-(2-[5-Indanyloxycarbonyl]-2-phenylacetamido)-2,2-dimethyl-3-(5-tetrazolyl)penam] |  | < 0.1 |  |
| CC1(C)S[C@@H]2[C@H](NC(=O)CNC(=O)NC(=N)Cc3ccc(Cl)cc3)C(=O)N2[C@H]1c1nnn[nH]1 [6-(2-[3-(2-[p-Chlorophenyl]acetimidoyl)ureido]acetamido)-2,2-dimethyl-3-(5-tetrazolyl)penam] | 100 (≈ 203 µM) |  |  |
| CC1(C)S[C@@H]2[C@H](NC(=O)C(NC(=O)CSC3=NCCN3)c3ccccc3)C(=O)N2[C@H]1c1nn[nH]n1 (some centres unmarked) [6-(2-[2-(Δ^1 -Imidazolin-2-ylthio)acetamido]-2-phenylacetamido)-2,2-dimethyl-3-(5-tetrazolyl)penam] |  | < 0.1 |  |
| CCSCC(=O)N[C@@H]1C(=O)N2[C@@H]1SC(C)(C)[C@@H]2c1nnn[nH]1 [2-(ethylthio)acetyl] |  | < 0.1 |  |
| CC1(C)S[C@@H]2[C@H](NC(=O)[C@H](NC(=O)CNC(=N)c3nc4ccccc4o3)c3ccccc3)C(=O)N2[C@H]1c1nnn[nH]1 | 0.39 (≈ 0.679 µM) |  |  |
| CC1(C)S[C@@H]2[C@H](NC(=O)CNC(=N)c3cccs3)C(=O)N2[C@H]1c1nnn[nH]1 [2-(2-thiophenecarboxamidino)acetyl] |  | < 0.1 |  |
| CC1(C)S[C@@H]2[C@H](NC(=O)[C@H](NC(=O)C3OC3C(=O)O)c3ccccc3)C(=O)N2[C@H]1c1nnn[nH]1 (stereo partly drawn) [6-(D-2-[4-Carboxy-2,3-propionamido]-2-phenylacetamido)-2,2-dimethyl-3-(5-tetrazol-5-yl)penam] | 0.2 (≈ 0.41 µM) |  |  |
| CCNC(=O)N[C@@H]1C(=O)N2[C@@H]1SC(C)(C)[C@@H]2c1nnn[nH]1 [3-ethylcarbamoyl, 6-(3-ethylureido)-2,2-dimethyl-3-(5-tetrazolyl)penam] |  | < 0.1 |  |
| CC1(C)S[C@@H]2[C@H](NC(=O)[C@H](NC(=O)CNC(=O)NC(=N)NCc3ccncc3)c3ccccc3)C(=O)N2[C@H]1c1nn[nH]n1 | 0.004 (≈ 0.00659 µM) |  |  |
| CC1(C)S[C@@H]2[C@H](NC(=O)[C@H](NC(=O)C(=Cc3ccc(Cl)cc3)C(=O)O)c3ccccc3)C(=O)N2[C@H]1c1nnn[nH]1 [6-(D-2-[2-carboxy-2(p-chlorophenyl)acrylamido]-2-phenylacetamido)-2,2-dimethyl-3-(5-tetrazolyl)penam] |  | < 0.1 |  |
| CC1(C)S[C@@H]2[C@H](NC(=O)[C@H](NC(=O)NC(=O)CCl)c3ccccc3)C(=O)N2[C@H]1c1nn[nH]n1 [2-(3-[chloroacetyl]ureido-2-phenylacetyl] | 0.2 (≈ 0.406 µM) |  |  |
| CC1(C)SC2C(NC(=O)[C@@H](c3ccccc3)S(N)(=O)=O)C(=O)N2C1c1nnn[nH]1 (stereo partly drawn) [2-sulfamoyl-2-phenylacetyl, 6-(D-2-Sulfamoyl-2-phenylacetamido)-2,2-dimethyl-3-(5-tetrazolyl)penam] |  |  | MIC vs. Strep. pyogenes (Table II, two-fold serial dilution, Brain-Heart Infusion broth, overnight): < 0.1 µg/mL |
| CC1(C)S[C@@H]2[C@H](NC(=O)[C@H](NC(=O)NC(N)=O)c3ccccc3)C(=O)N2[C@H]1c1nnn[nH]1 [D-2-allophanamido-2-phenylacetyl, 6-(D-2-Allophanamido-2-phenylacetamido)-2,2-dimethyl-3-(5-tetrazolyl)penam] |  | < 0.1 |  |
| CC1(C)S[C@@H]2[C@H](NC(=O)[C@H](NC(=O)CSC(=N)N)c3ccccc3)C(=O)N2[C@H]1c1nn[nH]n1 | 0.004 (≈ 0.00817 µM) |  |  |
| CC1(C)S[C@@H]2[C@H](NC(=O)[C@H](NC(=O)CCN)c3ccccc3)C(=O)N2[C@H]1c1nn[nH]n1 [D-2-(3-aminopropionamido)-2-phenylacetyl, 6-(D-2-[3-Aminopropionamido]-2-phenylacetamido)-2,2-dimethyl-3-(5-tetrazolyl)penam] |  | < 0.1 |  |
| CC1(C)S[C@@H]2[C@H](NC(=O)Cc3ccc(CN)s3)C(=O)N2[C@H]1c1nnn[nH]1 [2-(5-aminomethyl-2-thienyl)-acetyl, 6-(2-[5-Aminomethyl-2-thienyl]acetamido)-2,2-dimethyl-3-(5-tetrazolyl)penam] |  | ≤ 0.1 |  |
| CNC(=O)N[C@@H](C(=O)N[C@@H]1C(=O)N2[C@@H]1SC(C)(C)[C@@H]2c1nnn[nH]1)c1ccccc1 [D-2-(3-methylureido)-2-phenylacetyl] | 50 (≈ 116 µM) |  |  |

| Molecule | MIC [1] [µg/mL] | MIC [2] [µg/mL] | other results |
| --- | --- | --- | --- |
| CC1(C)S[C@@H]2[C@H](NC(=O)[C@H](NC(=O)CNC(=O)OCc3ccccc3)c3ccccc3)C(=O)N2[C@H]1c1nnn[nH]1 | 0.39 (≈ 0.691 µM) |  |  |
| CC1(C)S[C@@H]2[C@H](NC(=O)[C@H](NC(=O)CN=[N+]=[N-])c3ccccc3)C(=O)N2[C@H]1c1nnn[nH]1 [D-2-(2-azicoacetamido)-2-phenylacetyl] | 0.2 (≈ 0.438 µM) |  |  |
| CC(=O)C(C(=O)NC1C(=O)N2C(c3nnn[nH]3)C(C)(C)S[C@H]12)c1ccccc1 (stereo partly drawn) [D-2-acetyl-2-phenylacetyl, 6-(2-Acetyl-2-phenylacetamido)-2,2-dimethyl-3-(5-tetrazolyl)penam] | 0.004 (≈ 0.00999 µM) |  |  |
| CNC(=N)NCC(=O)N[C@@H](C(=O)N[C@@H]1C(=O)N2[C@@H]1SC(C)(C)[C@@H]2c1nn[nH]n1)c1ccccc1 |  | < 0.1 |  |
| Cc1ccc(NC(=O)N[C@@H](C(=O)N[C@@H]2C(=O)N3[C@@H]2SC(C)(C)[C@@H]3c2nnn[nH]2)c2ccccc2)cc1 [D-2-(3-[p-tolyl]ureido)-2-phenylacetyl] |  | < 0.1 |  |
| CC1(C)S[C@@H]2[C@H](NC(=O)[C@H](NC(=O)CCNC(=N)c3ccc(Cl)c(Cl)c3)c3ccccc3)C(=O)N2[C@H]1c1nnn[nH]1 | 0.78 (≈ 1.27 µM) |  |  |
| CC1(C)S[C@@H]2[C@H](NC(=O)[C@H](NC(=O)CCC(=N)N)c3ccccc3)C(=O)N2[C@H]1c1nn[nH]n1 |  | < 0.1 |  |
| CC1(C)S[C@@H]2[C@H](NC(=O)C(N)c3cc(O)ccc3Br)C(=O)N2[C@H]1c1nnn[nH]1 (mixture of isomers) |  | < 0.1 |  |
| CC1(C)S[C@@H]2[C@H](NC(=O)[C@H](NC(=O)CNC(=N)c3cc(S(N)(=O)=O)cc(S(N)(=O)=O)c3)c3ccccc3)C(=O)N2[C@H]1c1nnn[nH]1 | 0.004 (≈ 0.00578 µM) |  |  |
| CC1(C)S[C@@H]2[C@H](NC(=O)[C@H](NC(=O)Cc3ccccc3)c3ccccc3)C(=O)N2[C@H]1c1nnn[nH]1 [D-2-(2-phenylacetamido)-2-phenylacetyl] |  | < 0.1 |  |
| CC1(C)S[C@@H]2[C@H](NC(=O)[C@H](NC(=O)CSC3=NC(=O)CN3)c3ccccc3)C(=O)N2[C@H]1c1nn[nH]n1 |  | 0.1 (≈ 0.189 µM) |  |
| Cc1ccc(S(=O)(=O)NC(=O)N[C@@H]2C(=O)N3[C@@H]2SC(C)(C)[C@@H]3c2nn[nH]n2)cc1 [N-(p-toluenesulfonyl)carbomoyl] | 1.56 (≈ 3.57 µM) |  |  |
| CC1(C)S[C@@H]2[C@H](NC(=O)[C@H](NC(=O)NC(=O)c3cccnc3)c3ccccc3)C(=O)N2[C@H]1c1nn[nH]n1 |  | 0.1 (≈ 0.192 µM) |  |
| CC1(C)S[C@@H]2[C@H](NC(=O)CNC(=N)c3ccncc3)C(=O)N2[C@H]1c1nnn[nH]1 [2-(4-pyridinecarboxamidino)acetyl] |  | < 0.1 |  |
| CCNC(=S)NCCC(=O)N[C@@H](C(=O)N[C@@H]1C(=O)N2[C@@H]1SC(C)(C)[C@@H]2c1nnn[nH]1)c1ccccc1 | 0.39 (≈ 0.734 µM) |  |  |
| CC1(C)S[C@@H]2[C@H](NC(=O)[C@H](NC(=O)c3cccnc3)c3ccccc3)C(=O)N2[C@H]1c1nnn[nH]1 |  | < 0.1 |  |
| CC1(C)S[C@@H]2[C@H](N3CN[C@H](c4ccccc4)C3=O)C(=O)N2[C@H]1c1nnn[nH]1 [6-(5-Oxo-4-phenyl-1-imidazolidinyl)-2,2-dimethyl-3-(5-tetrazolyl)penam] |  |  | MIC [3]: 6.25 µg/mL (≈ 16.2 µM) |
| CC1(C)S[C@@H]2[C@H](NC(=O)[C@H](NC(=O)NC(=O)OCc3ccccc3)c3ccccc3)C(=O)N2[C@H]1c1nn[nH]n1 | 0.004 (≈ 0.00726 µM) |  |  |
| CC1(C)S[C@@H]2[C@H](NC(=O)[C@H](NC(=O)Nc3ccccc3)c3ccc(O)cc3)C(=O)N2[C@H]1c1nnn[nH]1 [6-(2-[3-Phenylureido]-2-[p-hydroxyphenyl]acetamido)-2,2-dimethyl-3-(5-tetrazolyl)penam] |  |  | MIC (Examples, read-out: MIC against Strep. pyogenes): < 0.1 µg/mL |
| CNC(=N)NC(=O)NCC(=O)N[C@@H](C(=O)N[C@@H]1C(=O)N2[C@@H]1SC(C)(C)[C@@H]2c1nn[nH]n1)c1ccccc1 |  | < 0.1 |  |
| 6-(2-[2-Aminomethylphenyl]acetamido)-2,2-dimethyl-3-(1-[2]-pivaloyloxymethyltetrazol-5-yl)penam |  |  | MIC vs. Strep. pyogenes (Table IV): < 0.1 µg/mL |
| CC1(C)S[C@@H]2[C@H](NC(=O)[C@H](N)c3ccc(F)cc3)C(=O)N2[C@H]1c1nnn[nH]1 [D-2-amino-2-(p-fluorophenyl)acetyl, 6-(D-2-amino-2-[p-fluorophenyl]acetamido)-2,2-dimethyl-3-(5-tetrazolyl)penam] | 3.12 (≈ 7.97 µM) |  |  |
